{"source": "patent US7020578B2", "about": "“Method for evaluating novel, stroke treatments using a tissue risk map” (The General Hospital Corporation, priority 2000, dated 2006)", "assay_type_in_all_cases": "in vivo, human", "key": {"[1]": {"assay": "phase I/II double-blind, randomized, placebo-controlled, dose-escalation trial of intravenous bFGF (FIBLAST) in stroke patients; change in NIH Stroke Scale score, admission vs discharge", "details": "Patient 9*; 3 μg/kg; NIH SS (Initial) 2; follow-up 3 days"}, "[2]": {"assay": "phase I/II double-blind, randomized, placebo-controlled, dose-escalation trial of intravenous bFGF (FIBLAST) in stroke patients; change in NIH Stroke Scale score, admission vs discharge", "details": "for number of treated patients with ΔNIH SS < 4 / number of treated patients with ΔNIH SS ≧ 4 (improved outcome): 2 × 2 contingency table", "method": "Sixty-six patients were entered into a phase I/II trial of basic fibroblast growth factor (bFGF), FIBLAST. This trial was a double-blind, randomized, placebo-controlled, dose-escalation, and three month follow-up study of intravenous infusion of basic fibroblast growth factor (bFGF). Patients were randomized either to placebo or one of six different doses of bFGF ranging from […] to 150 μg/kg. Eleven patients were enrolled at Massachusetts General Hospital (MGH). Each patient underwent MRI imaging according to the standard MGH protocol within the first ten hours of symptom onset, and follow-up imaging at discharge.\nThe primary efficacy measure was change in NIH Stroke Scale (NIHSS) score measured at admission compared to that reported at discharge. Patients were classified as having an improved outcome if the NIH SS score decreased by more than four points. Two by two contingency tables were computed for the placebo versus the bFGF treated patients and a Fisher's Exact test performed.\nPatients with greater than a four point change on the NIH SS score were classified as having a favorable outcome. A 2×2 contingency table, shown in Table 4, was evaluated for statistical independence between treated and placebo groups using Fisher's exact test."}, "[3]": {"assay": "GLM risk map of infarction from initial DWI/PWI compared with final infarct on follow-up imaging in bFGF trial patients", "details": "Patient 7; full dose (150 ug/kg); 19 day follow-up FLAIR", "source_text": "A generalized linear model (GLM) of risk of tissue infarction was generated from retrospective studies of hyperacute cerebral ischemia patients who received diffusion and perfusion weighted imaging within twelve hours of presenting with symptoms. Only patients with cortical infarcts caused by occlusion of major cerebral arteries were included in the training data. […] The volumetric diffusion and perfusion data were coregistered utilizing an automated image registration software package (AIR 3.08). Utilizing a supervised learning algorithm and logistic regression, the parameters for the GLM were computed using coregistered data sets, as described in the previous section.\nIn one embodiment, a GLM algorithm is used to model tissue outcome. Tissue outcome y can be modeled as a binary variable (normal/abnormal) and therefore a Bernoulli probability density function assumed for its distribution. The logistic function can then be used to compute y as set forth below in Equation 1: [formula] where y is an estimate of the risk of infarction, x represents an input vector that can include an initial T2, ADC, rCBF (relative cerebral blood flow), rCBV (relative cerebral blood volume) and MTT (mean transmit time) data and B the calculated coefficients.\nThe dose of bFGF was correlated with the positive predictive value (PPV) of the GLM model described in the previous section. […]"}, "[4]": {"details": "patients enrolled at MGH, all doses pooled"}, "[5]": {"details": "subset of 7 patients evaluated with GLM models"}}, "data": [{"substance": "basic fibroblast growth factor [bFGF]", "values": [{"measurement": "NIH SS (Discharge)", "setting": "[1]", "value": 2}, {"measurement": "number of treated patients with ΔNIH SS < 4", "setting": "[2]; [4]", "value": 4}, {"measurement": "number of treated patients with ΔNIH SS ≧ 4 (improved outcome)", "setting": "[2]; [4]", "value": 4}, {"measurement": "number of treated patients with ΔNIH SS < 4", "setting": "[2]; [5]", "value": 1}, {"measurement": "number of treated patients with ΔNIH SS ≧ 4 (improved outcome)", "setting": "[2]; [5]", "value": 4}, {"measurement": "NIH SS (Discharge)", "setting": "[2]; Patient 3, 9 μg/kg, NIH SS (Initial) 15, follow-up 7 days", "value": 5}, {"measurement": "NIH SS (Discharge)", "setting": "[2]; Patient 4, 27 μg/kg, NIH SS (Initial) 15, follow-up 7 days", "value": 11}, {"measurement": "NIH SS (Discharge)", "setting": "[2]; Patient 5, 75 μg/kg, NIH SS (Initial) 6, follow-up 4 days", "value": 1}, {"measurement": "NIH SS (Discharge)", "setting": "[2]; Patient 6, 150 μg/kg, NIH SS (Initial) 16, follow-up 13 days", "value": 14}, {"measurement": "NIH SS (Discharge)", "setting": "[2]; Patient 7, 150 μg/kg, NIH SS (Initial) 17, follow-up 19 days", "value": 12}, {"measurement": "NIH SS (Discharge)", "setting": "[2]; Patient 8*, 75 μg/kg, NIH SS (Initial) 4, follow-up 8 days", "value": 2}, {"measurement": "NIH SS (Discharge)", "setting": "[2]; Patient 10*, 75 μg/kg, NIH SS (Initial) 4, follow-up 5 days", "value": 3}, {"measurement": "NIH SS (Discharge)", "setting": "[2]; Patient 11*, 3 μg/kg, NIH SS (Initial) 18, follow-up 7 days", "value": 20}, {"measurement": "statistical independence between treated and placebo groups, improved outcome (Fisher's exact test)", "setting": "[2]; Table 4, patients enrolled at MGH", "value": "No statistical significance"}, {"measurement": "statistical independence between treated and placebo groups, improved outcome (Fisher's exact test)", "setting": "[2]; Table 5, subset of 7 patients", "value": "No statistical significance"}, {"measurement": "outcome of penumbra predicted at risk of infarction by the risk map, on follow-up FLAIR", "setting": "[3]", "value": "does not go on to infarction"}]}]}
